In data set [1] the test system is H22 cells. The data set is described as follows: Cell cycle analysis by flow cytometry (PI). In kind it is cell-based. The following applies: 3 μM, 48 h; for Distribution (%) G2/M: control 12.26%; for percentage of G1-phase cells: control 15.32%; for percentage of S-phase cells: control 72.42%. As to the method:
To determine whether the suppression of cell growth by the compounds was caused by a cell-cycle effect, we used a cell cycle analysis kit to detect the DNA content of cell nuclei.
H22 cells were treated with 7a–7e at 3 μM at 37 °C for 48 h and then cells were harvested, centrifuged, resuspended and fixed in 70% EtOH overnight at 4 °C. The fixed cells were digested by RNase A (0.25 mg·mL^−1) at 37 °C for 30 min, and stained with PI (50 μg·mL^−1) in the dark at room temperature for 30 min. The distribution of the cell cycle was analyzed by Flow Cytometer.
On the technique in general: Flow cytometry measures light scatter and fluorescence of single cells or particles in a stream.

In data set [2] the test system is S180 cells.
Data set [3] deals with H22 cells.
Data set [4] relates to S180 cells. In words: cells. The following applies: S-180, 48 h, read-out: IC50, S180.
Data set [5] has as its system H22 cells. The data set is described as follows: cells. The following applies: Mus musculus, H22, 48 h, read-out: IC50, H22.
The subject of the next data set is K562 cells. The data set is described as follows: cells. Conditions: Homo sapiens, K562, 48 h, read-out: IC50, K562.
For another data set, the system named is MCF-7 cells. In words: cells. The following applies: Homo sapiens, MCF7, 48 h, read-out: IC50, MCF-7.
Another data set deals with LoVo cells. In words: cells. Conditions: Homo sapiens, 48 h, read-out: IC50, LoVo.
The test system of another data set is L929 cells. In words: cells. Conditions: Mus musculus, L929, 48 h, read-out: IC50, L929.
In a further data set the test system is H22 tumor bearing mice. The data set is described as follows: Antitumor activity and toxicity in vivo in H22 tumor bearing mice. On the set-up: species or system KM mice. Conditions: for tumor inhibition rate: 50 mg/kg, administered for 6 days, H22 tumor bearing mice; for toxicity, organ-to-body weight ratios (organ indexes: thymus, brain, lung, heart, liver, kidney, spleen) compared with NS: 50 and 30 mg/kg (CP 50 mg/kg); for body weight change compared with NS group: even at the dose of 50 mg/kg.

The structures appear in SMILES notation.

Regarding `COC(=O)CCC[C@@H]1[C@H]2CCCN3CCC[C@H](CN1P(=O)(Oc1ccc([N+](=O)[O-])cc1)N(CCCl)CCCl)[C@@H]23` (stereo partly shown) [Compound 7d], the “Distribution (%) G2/M” value in the data set on H22 cells [1] turned out to be 15.66%. Further, the “percentage of G1-phase cells” value with H22 cells [1] was 16.10%. For the same molecule, the “percentage of S-phase cells” value in the data set on H22 cells [1] was 68.24%. Moreover, the “SI * selectivity index (SI) of S180 against L929” value (“SI * selectivity index (SI)” for short) in the data set on S180 cells [2] was found to be 52.40. Further, in the data set on S180 cells [2], the “kinetics of growth inhibition, S180” value is “concentration-dependent and time-dependent”. Besides, in the data set with H22 cells [3], the “SI ** selectivity index (SI) of H22 against L929” value (from here on “SI ** selectivity index (SI)”) is given as 58.51. Further, the “kinetics of growth inhibition, H22” value in the data set on H22 cells [3] was “concentration-dependent and time-dependent”. Moreover, the IC50 (in general, the concentration needed to halve the response being measured) is 2.01 ± 0.14 µM with S180 cells [4]; 1.8 ± 0.12 µM in the data set on H22 cells [5]; 20.3 ± 2.05 µM in the data set with K562 cells; 34.6 ± 2.21 µM in the data set on MCF-7 cells; 32.2 ± 2.21 µM with LoVo cells; 105 ± 3.1 µM with L929 cells.

Molecule `COC(=O)CCC[C@@H]1[C@H]2CCCN3CCC[C@H](CN1P(=O)(Oc1ccccc1)N(CCCl)CCCl)[C@@H]23` (stereo partly shown) [Compound 7e] came in with a tumor inhibition rate with H22 tumor bearing mice of 47.78%. For the same molecule, in the data set with H22 tumor bearing mice, the “toxicity, organ-to-body weight ratios (organ indexes: thymus, brain, lung, heart, liver, kidney, spleen) compared with NS” value is listed as “induced low toxicity”. Further, the “body weight change compared with NS group” value (shortened to “body weight change”) in the data set on H22 tumor bearing mice is on record as “did not significantly cause body weight change”. The “Distribution (%) G2/M” value in the data set on H22 cells [1] is 11.75%. For the same molecule, the “percentage of G1-phase cells” value in the data set on H22 cells [1] was determined as 17.21%. For the same molecule, the “percentage of S-phase cells” value with H22 cells [1] is on record as 71.04%. Also, the “SI * selectivity index (SI)” value in the data set on S180 cells [2] came to 37.96. For the same molecule, the “SI ** selectivity index (SI)” value with H22 cells [3] amounted to 74.89. Further, the IC50 was determined as 3.65 ± 0.25 µM in the data set with S180 cells [4]; 1.85 ± 0.16 µM in the data set on H22 cells [5]; 32.7 ± 2.56 µM with K562 cells; 86.6 ± 2.67 µM in the data set on MCF-7 cells; 70 ± 2.78 µM with LoVo cells; 139 ± 3.35 µM in the data set on L929 cells.

For the molecule `COC(=O)CCC[C@@H]1[C@H]2CCCN3CCC[C@H](CN1P(=O)(Oc1ccc(Cl)cc1)N(CCCl)CCCl)[C@@H]23` (stereo partly shown) [Compound 7c], in the data set on H22 tumor bearing mice, the tumor inhibition rate is reported as 54.83%; the “toxicity, organ-to-body weight ratios (organ indexes: thymus, brain, lung, heart, liver, kidney, spleen) compared with NS” value is given as “induced low toxicity”; the “body weight change” value is reported as “did not significantly cause body weight change”. In addition, in the data set with H22 cells [1], the “Distribution (%) G2/M” value is given as 6.30%, the “percentage of G1-phase cells” value is 51.22% and the “percentage of S-phase cells” value was 42.48%. Further, in the data set on S180 cells [2], the “SI * selectivity index (SI)” value stood at 80.40; the “kinetics of growth inhibition, S180” value is “concentration-dependent and time-dependent”. In the data set on H22 cells [3], the “SI ** selectivity index (SI)” value came to 160.80; the “kinetics of growth inhibition, H22” value is “concentration-dependent and time-dependent”. In addition, the IC50 in the data set with S180 cells [4] is 2.02 ± 0.17 µM. Further, the IC50 in the data set on H22 cells [5] came out at 1.01 ± 0.08 µM. For the same molecule, in the data set with K562 cells, the concentration for half-maximal inhibition (IC50) was 18.1 ± 1.34 µM. The IC50 in the data set with MCF-7 cells was determined as 31.9 ± 2.45 µM. The IC50 in the data set on LoVo cells came out at 33.4 ± 2.45 µM. Further, the IC50 in the data set on L929 cells was found to be 162 ± 4.12 µM.

`COC(=O)CCC[C@@H]1[C@H]2CCCN3CCC[C@H](CN1P(=O)(Oc1ccc(OC)cc1)N(CCCl)CCCl)[C@@H]23` (stereo partly shown) [Compound 7b]: the “Distribution (%) G2/M” value in the data set with H22 cells [1] was 12.70%. Moreover, the “percentage of G1-phase cells” value in the data set on H22 cells [1] worked out at 15.44%. In addition, the “percentage of S-phase cells” value in the data set on H22 cells [1] is listed as 71.86%. Also, the “SI * selectivity index (SI)” value in the data set with S180 cells [2] is on record as 29.80. The “SI ** selectivity index (SI)” value in the data set with H22 cells [3] stood at 39.36. For the same molecule, the IC50 is 3.5 ± 0.35 µM in the data set with S180 cells [4]; 2.65 ± 0.25 µM in the data set with H22 cells [5]; 54.5 ± 2.32 µM in the data set with K562 cells; 38.9 ± 2.56 µM in the data set on MCF-7 cells; 46.2 ± 2.32 µM in the data set on LoVo cells; 104 ± 3.2 µM with L929 cells.

As to `O=P1(N(CCCl)CCCl)NCCCO1` (stereo not shown) [CP, cyclophosphamide, reference compound], in the data set on H22 tumor bearing mice, the tumor inhibition rate was 72.22%; the “toxicity, organ-to-body weight ratios (organ indexes: thymus, brain, lung, heart, liver, kidney, spleen) compared with NS” value is “significantly increase the liver and spleen indexes”.

In the case of `COC(=O)CCC[C@@H]1[C@H]2CCCN3CCC[C@H](CN1P(=O)(Oc1ccc(C)cc1)N(CCCl)CCCl)[C@@H]23` (stereo partly shown) [Compound 7a], the tumor inhibition rate with H22 tumor bearing mice is 46.95%. Further, in the data set with H22 tumor bearing mice, the “toxicity, organ-to-body weight ratios (organ indexes: thymus, brain, lung, heart, liver, kidney, spleen) compared with NS” value is given as “induced low toxicity”. Besides, the “body weight change” value in the data set on H22 tumor bearing mice was “did not significantly cause body weight change”. The “Distribution (%) G2/M” value with H22 cells [1] is 15.15%. Also, the “percentage of G1-phase cells” value with H22 cells [1] is 32.02%. For the same molecule, the “percentage of S-phase cells” value with H22 cells [1] was found to be 52.83%. Moreover, the “SI * selectivity index (SI)” value in the data set with S180 cells [2] came to 62.51. The “SI ** selectivity index (SI)” value with H22 cells [3] is recorded as 83.10. For the same molecule, the IC50 is 2.89 ± 0.23 µM with S180 cells [4]; 2.17 ± 0.13 µM in the data set on H22 cells [5]; 27.1 ± 2.51 µM in the data set on K562 cells; 61.2 ± 2.21 µM in the data set with MCF-7 cells; 62.5 ± 2.32 µM with LoVo cells; 181 ± 4.56 µM with L929 cells.

Turning to `COc1cccc2c1C(=O)c1c(O)c3c(c(O)c1C2=O)C[C@@](O)(C(=O)CO)C[C@@H]3O[C@H]1C[C@H](N)[C@H](O)[C@H](C)O1` [Dox, Doxorubicin, reference compound], the IC50 in the data set with S180 cells [4] came to 29.2 ± 2.07 µM; with H22 cells [5], 36.5 ± 2.56 µM; in the data set with K562 cells it was 17.2 ± 1.78 µM; with MCF-7 cells, 0.44 ± 0.08 µM; in the data set with LoVo cells, 0.15 ± 0.02 µM; with L929 cells, 0.23 ± 0.08 µM.

With `O=C1CCC[C@@H]2[C@H]3CCCN4CCC[C@H](CN12)[C@@H]34` [Compound 1, Sophoridine, reference compound], the concentration for half-maximal inhibition (IC50) with S180 cells [4], with H22 cells [5], in the data set with K562 cells, with MCF-7 cells, with LoVo cells and with L929 cells was greater than 100 µM throughout.

The values are drawn from article PMC6222802 (Molecules : A Journal of Synthetic Chemistry and Natural …, 2018).
